SMILES strings stand for the structures. The source made the active and inactive calls.

Experiment [1] deals with T1, Apoptotic protease-activating factor 1 (Homo sapiens, UniProt O14727).
T1 sequence (O14727 whole entry): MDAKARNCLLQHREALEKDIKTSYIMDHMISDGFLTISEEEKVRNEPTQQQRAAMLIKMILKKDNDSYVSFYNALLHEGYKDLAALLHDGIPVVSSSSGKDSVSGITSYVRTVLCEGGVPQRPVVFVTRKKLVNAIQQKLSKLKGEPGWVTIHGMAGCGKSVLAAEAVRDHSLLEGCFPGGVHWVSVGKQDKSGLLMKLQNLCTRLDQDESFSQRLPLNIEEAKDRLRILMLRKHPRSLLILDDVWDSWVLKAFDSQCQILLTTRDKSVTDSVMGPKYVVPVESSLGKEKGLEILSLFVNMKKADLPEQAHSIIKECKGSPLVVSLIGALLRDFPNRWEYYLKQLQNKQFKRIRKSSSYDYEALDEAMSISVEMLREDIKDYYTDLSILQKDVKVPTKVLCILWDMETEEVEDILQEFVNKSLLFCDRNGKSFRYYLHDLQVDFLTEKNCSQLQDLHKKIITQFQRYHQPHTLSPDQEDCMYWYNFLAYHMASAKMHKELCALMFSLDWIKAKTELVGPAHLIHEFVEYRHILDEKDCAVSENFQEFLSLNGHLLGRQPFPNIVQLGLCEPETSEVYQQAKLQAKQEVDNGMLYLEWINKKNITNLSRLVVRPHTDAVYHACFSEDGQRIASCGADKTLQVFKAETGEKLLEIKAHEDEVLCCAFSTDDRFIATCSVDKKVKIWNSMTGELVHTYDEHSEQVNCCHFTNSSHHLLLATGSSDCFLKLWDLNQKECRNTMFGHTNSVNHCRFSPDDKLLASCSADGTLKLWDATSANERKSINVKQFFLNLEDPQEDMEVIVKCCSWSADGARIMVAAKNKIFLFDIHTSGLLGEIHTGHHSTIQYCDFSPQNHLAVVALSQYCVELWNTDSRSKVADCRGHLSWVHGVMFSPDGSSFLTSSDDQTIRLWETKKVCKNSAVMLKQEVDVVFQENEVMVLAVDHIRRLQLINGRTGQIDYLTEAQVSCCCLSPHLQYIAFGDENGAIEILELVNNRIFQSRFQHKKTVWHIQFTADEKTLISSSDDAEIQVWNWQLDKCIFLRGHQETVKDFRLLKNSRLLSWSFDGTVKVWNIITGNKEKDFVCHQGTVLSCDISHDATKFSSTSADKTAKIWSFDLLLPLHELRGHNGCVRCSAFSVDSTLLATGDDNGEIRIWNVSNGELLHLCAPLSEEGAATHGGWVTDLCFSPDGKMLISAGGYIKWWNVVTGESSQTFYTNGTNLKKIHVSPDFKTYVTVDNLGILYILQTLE
Nature of the experiment: SAR analysis of small molecule Activators of Apaf-1 in a Fluorescent assay. It counts as functional. The conditions noted are these: read-out: EC50_Mean.

Experiment [2] is described as follows: luciferase reporter signal suppression in cells – H4 neuroglioma cells, luminescence, dose response (AID 1990). It counts as functional, cell-based. (In general: Reporter assays use an easily measured gene product as a stand-in for the process of interest.)
Experiment [3] can be described thus: luciferase reporter signal reduction – luminescence, H4-C neuroglioblastoma cells, dose response (AID 2458).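 Further: H4 neuroglioblastoma cells stably carrying a luciferase reporter gene fusion.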 It counts as functional, cell-based.
A further experiment in a line: cells. In kind it is functional, cell-based.
The nature of experiment [4]: alpha-synuclein stem-loop luciferase translation blockers – H4 neuroglioma cells, luminescence, confirmation (AID 1988). It counts as functional, cell-based.
Experiment [5] in a line: HPDE-C7 pancreatic duct cell viability loss – fluorescence, HTS (AID 430). Conditions: Homo sapiens. In kind it is functional, cell-based.
Experiment [6] can be described thus: viability loss of HPDE-C7K cells – cell-based, fluorescence, HTS, primary screen (AID 431). In kind it is functional. The conditions noted are these: Homo sapiens.
The nature of experiment [7]: alpha-synuclein stem-loop translation blockers – luminescence, H4 neuroglioblastoma cells, dose confirmation, confirmation (AID 2454).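 Further: H4 neuroglioblastoma cells carrying an alpha-synuclein 5'UTR luciferase reporter; potency for inhibition of the luciferase signal.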 In kind it is functional, cell-based.
For experiment [8], the target named is T2, High affinity choline transporter 1 (Homo sapiens, UniProt Q9GZV3).
T2 sequence (Q9GZV3 whole entry): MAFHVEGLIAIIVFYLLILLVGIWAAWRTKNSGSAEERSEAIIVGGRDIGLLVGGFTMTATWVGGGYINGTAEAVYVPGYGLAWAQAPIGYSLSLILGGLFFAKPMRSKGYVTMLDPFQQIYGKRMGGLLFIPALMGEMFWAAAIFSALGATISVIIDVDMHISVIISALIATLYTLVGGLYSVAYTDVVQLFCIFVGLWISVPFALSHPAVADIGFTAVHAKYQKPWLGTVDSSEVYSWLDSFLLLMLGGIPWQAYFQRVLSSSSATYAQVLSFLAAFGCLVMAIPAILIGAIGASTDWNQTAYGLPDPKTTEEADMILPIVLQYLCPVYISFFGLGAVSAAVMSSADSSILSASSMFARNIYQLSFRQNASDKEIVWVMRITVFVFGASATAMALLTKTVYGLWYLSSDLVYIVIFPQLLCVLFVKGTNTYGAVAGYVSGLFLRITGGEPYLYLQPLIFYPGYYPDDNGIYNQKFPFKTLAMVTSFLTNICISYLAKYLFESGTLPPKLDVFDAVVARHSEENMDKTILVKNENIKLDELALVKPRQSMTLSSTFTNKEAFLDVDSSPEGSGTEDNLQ
Nature of the experiment: human choline transporter blockers, potency – cell-based, 5-point CRC, membrane potential dye, dose response (AID 504840). It counts as functional.

The target of experiment [9] is T2, High affinity choline transporter 1. Nature of the experiment: human choline transporter blockers, potency – cell-based, 10-point CRC, membrane potential dye, dose response (AID 588401).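 Further: membrane potential dye fluorescence of choline-evoked depolarization via CHT.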 In kind it is functional.
Experiment [10] addresses T3, RNA-binding protein pos-1 (Caenorhabditis elegans, UniProt G5EF15).
T3 sequence (G5EF15 whole entry): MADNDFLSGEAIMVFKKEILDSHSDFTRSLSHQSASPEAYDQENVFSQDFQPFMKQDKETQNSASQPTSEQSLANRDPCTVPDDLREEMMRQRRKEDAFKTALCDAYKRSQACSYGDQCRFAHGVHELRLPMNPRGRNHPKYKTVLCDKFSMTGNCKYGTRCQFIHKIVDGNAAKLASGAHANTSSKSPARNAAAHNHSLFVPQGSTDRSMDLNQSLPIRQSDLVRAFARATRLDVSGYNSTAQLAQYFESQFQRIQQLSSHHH
The experiment is described as follows: disruptors of C. elegans POS-1 RNA interaction – biochemical, fluorescence polarization, dose response (AID 1964).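 Further: purified POS-1 fused to maltose binding protein made in E. coli; potency of compounds blocking POS-1 binding to fluorescent RNA.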 In general terms: In fluorescence polarisation assays a small probe gives low polarisation when free and higher when bound to something large.

Experiment [11] deals with T4, Zinc finger protein mex-5 (Caenorhabditis elegans, UniProt Q9XUB2).
T4 sequence (Q9XUB2 whole entry): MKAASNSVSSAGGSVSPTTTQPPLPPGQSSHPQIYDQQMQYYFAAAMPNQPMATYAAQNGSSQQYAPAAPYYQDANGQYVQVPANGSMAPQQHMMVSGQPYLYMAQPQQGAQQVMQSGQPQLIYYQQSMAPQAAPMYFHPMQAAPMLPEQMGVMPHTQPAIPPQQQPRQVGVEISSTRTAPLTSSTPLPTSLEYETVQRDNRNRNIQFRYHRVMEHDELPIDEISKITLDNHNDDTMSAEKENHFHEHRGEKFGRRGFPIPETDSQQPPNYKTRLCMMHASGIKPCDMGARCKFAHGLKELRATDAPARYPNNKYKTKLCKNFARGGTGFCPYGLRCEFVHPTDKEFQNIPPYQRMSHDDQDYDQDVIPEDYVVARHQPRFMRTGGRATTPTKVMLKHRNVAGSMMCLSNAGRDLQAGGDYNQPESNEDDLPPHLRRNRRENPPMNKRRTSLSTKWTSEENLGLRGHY
The experiment is described as follows: potency of MEX-5 RNA-binding blockers – biochemical, C. elegans, fluorescence polarization, dose response (AID 1960).

Experiment [12] has as its target T5, Mannose-6-phosphate isomerase (Homo sapiens, UniProt P34949).
T5 sequence (P34949 whole entry): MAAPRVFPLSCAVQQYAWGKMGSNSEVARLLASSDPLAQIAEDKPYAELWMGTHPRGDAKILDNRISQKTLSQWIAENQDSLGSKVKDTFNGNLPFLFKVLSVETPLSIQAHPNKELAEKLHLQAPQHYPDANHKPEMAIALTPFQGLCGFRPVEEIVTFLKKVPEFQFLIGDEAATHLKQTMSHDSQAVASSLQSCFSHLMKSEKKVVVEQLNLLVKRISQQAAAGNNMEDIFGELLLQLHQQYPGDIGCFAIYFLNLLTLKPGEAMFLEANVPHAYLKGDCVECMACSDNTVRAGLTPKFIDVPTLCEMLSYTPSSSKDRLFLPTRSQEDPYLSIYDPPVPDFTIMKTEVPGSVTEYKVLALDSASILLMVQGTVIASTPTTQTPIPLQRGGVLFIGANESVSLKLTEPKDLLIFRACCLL
The experiment is described as follows: MPI inhibition at elevated mannose 6-phosphate – biochemical, fluorescence intensity, high mannose 6-phosphate, primary screen (AID 1220).

Experiment [13] addresses Protein disulfide-isomerase (Homo sapiens, UniProt P07237). Nature of the experiment: inhibition of PDI-driven insulin aggregation – biochemical, turbidity, absorbance, cherry-picked samples, dose response (AID 602350). In kind it is functional.
Experiment [14] addresses T6, RNA-editing ligase 1, mitochondrial (Trypanosoma brucei brucei, UniProt P86926).
T6 sequence (P86926 whole entry): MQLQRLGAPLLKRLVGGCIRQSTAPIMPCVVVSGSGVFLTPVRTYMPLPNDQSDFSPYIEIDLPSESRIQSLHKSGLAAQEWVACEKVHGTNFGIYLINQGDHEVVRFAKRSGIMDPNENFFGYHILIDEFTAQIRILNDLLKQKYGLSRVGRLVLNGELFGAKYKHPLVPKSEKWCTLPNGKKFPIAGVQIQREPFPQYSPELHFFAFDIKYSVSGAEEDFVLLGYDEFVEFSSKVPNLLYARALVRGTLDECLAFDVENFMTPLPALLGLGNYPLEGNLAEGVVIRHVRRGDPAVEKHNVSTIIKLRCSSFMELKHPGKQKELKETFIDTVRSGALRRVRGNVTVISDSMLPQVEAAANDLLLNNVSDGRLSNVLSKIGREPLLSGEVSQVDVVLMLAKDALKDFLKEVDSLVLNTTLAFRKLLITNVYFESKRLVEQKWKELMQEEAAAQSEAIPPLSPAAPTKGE
The experiment is described as follows: inhibition of trypanosome RNA editing ligase – biochemical, fluorescence, Trypanosoma brucei, dose response (AID 1117295). It counts as functional.

Experiment [15] is described as follows: viability loss in Vero cells – cell-based, purified and synthesized samples, set 8, cytotoxicity control for M. tuberculosis inhibitor project (AID 602431). It counts as functional. Conditions: Mycobacterium tuberculosis.
Experiment [16] concerns the target Tyrosine-protein kinase receptor TYRO3 (Homo sapiens, UniProt Q06418). In kind it is functional.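 Further: TYRO3 value obtained as one member of a kinome-wide profiling panel.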
Experiment [17] has as its target Cyclin-dependent kinase 8 (Homo sapiens, UniProt P49336). Nature of the experiment: Navigating the Kinome. Panel member name: CDK8. In kind it is functional.
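Wherever EC50 Mean is given: caspase-3 cleavage of fluorogenic Rh110 DEVD substrate downstream of apoptosome activation.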

Chain of Protein disulfide-isomerase (P07237 whole entry): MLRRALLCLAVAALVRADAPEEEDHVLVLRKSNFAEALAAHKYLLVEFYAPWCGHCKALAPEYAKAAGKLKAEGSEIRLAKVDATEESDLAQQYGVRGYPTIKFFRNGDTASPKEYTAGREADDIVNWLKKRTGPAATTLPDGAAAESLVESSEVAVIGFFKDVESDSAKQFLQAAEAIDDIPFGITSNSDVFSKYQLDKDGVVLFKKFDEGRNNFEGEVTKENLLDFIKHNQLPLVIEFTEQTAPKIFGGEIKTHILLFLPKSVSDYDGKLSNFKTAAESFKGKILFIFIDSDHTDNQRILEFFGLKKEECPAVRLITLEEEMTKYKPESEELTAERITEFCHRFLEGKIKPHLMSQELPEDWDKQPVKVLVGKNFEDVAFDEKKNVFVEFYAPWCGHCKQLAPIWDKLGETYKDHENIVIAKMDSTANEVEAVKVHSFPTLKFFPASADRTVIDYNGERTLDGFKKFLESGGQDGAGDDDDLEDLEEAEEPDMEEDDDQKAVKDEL
Chain of Cyclin-dependent kinase 8 (P49336 whole entry): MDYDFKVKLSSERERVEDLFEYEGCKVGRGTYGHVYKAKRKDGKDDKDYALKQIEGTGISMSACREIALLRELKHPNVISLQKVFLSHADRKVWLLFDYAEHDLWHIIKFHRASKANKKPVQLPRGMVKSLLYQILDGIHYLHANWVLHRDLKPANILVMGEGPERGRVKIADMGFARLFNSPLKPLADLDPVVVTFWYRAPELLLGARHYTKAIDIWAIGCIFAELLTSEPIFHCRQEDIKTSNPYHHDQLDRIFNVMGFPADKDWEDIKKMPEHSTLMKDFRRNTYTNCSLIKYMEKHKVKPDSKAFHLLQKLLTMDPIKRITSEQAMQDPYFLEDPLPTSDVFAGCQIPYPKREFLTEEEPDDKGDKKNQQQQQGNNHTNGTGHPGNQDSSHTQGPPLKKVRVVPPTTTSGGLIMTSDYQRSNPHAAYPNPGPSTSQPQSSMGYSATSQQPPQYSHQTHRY
Chain of Tyrosine-protein kinase receptor TYRO3 (Q06418 whole entry): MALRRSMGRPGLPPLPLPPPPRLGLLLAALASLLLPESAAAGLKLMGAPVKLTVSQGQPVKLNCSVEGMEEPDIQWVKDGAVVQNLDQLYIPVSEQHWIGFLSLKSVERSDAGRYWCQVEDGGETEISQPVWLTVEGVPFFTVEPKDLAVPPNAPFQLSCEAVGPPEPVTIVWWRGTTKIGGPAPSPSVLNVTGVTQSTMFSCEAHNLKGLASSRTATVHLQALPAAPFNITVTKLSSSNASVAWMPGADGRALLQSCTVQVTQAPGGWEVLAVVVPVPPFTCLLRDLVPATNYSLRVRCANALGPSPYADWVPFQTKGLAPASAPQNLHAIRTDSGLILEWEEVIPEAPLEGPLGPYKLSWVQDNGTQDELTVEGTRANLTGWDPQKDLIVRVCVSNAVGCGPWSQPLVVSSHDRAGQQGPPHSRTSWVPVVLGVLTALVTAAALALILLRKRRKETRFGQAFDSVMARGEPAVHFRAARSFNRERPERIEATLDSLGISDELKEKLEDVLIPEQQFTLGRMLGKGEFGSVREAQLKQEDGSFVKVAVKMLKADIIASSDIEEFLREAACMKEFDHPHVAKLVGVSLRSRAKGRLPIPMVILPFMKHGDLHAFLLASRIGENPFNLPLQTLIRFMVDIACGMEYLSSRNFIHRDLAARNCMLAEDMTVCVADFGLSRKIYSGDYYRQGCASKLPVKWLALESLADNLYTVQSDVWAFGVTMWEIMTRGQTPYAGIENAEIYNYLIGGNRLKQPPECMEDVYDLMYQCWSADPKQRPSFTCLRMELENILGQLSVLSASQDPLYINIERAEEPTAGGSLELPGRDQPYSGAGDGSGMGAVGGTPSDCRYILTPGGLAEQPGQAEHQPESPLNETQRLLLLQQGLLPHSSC

Turning to `Cc1ccc(N2C(=O)CC3(CC(c4ccccc4Cl)=NO3)C2=O)cc1` (stereo not given), the EC50 in [1] was > 100000 nM (inactive).

For the molecule `COc1ccc(C2=Nn3c(nnc3-c3ccccc3OC)SC2)cc1OC`, the EC50 in experiment [2] was < 100 nM (active); in experiment [3], 624 nM (active); in the experiment “cells” it was 494 nM (active); in experiment [4], < 100 nM (active); in experiment [5] it was 700 nM (active); in experiment [6], 300 nM (active). Besides, the EC50 in experiment [7] was 551 nM (active). Also, the IC50 – broadly, the concentration that inhibits the measured activity by half – in experiment [8] is 1150 nM (active); in experiment [9], 4220 nM (active).

Take `C[C@@H]1O[C@@H](Oc2c(-c3cc(O)c(O)c(O)c3)oc3cc(O)cc(O)c3c2=O)[C@H](O)[C@H](O)[C@H]1O`: the EC50 in experiment [10] is 15800 nM (active); in experiment [11], 14000 nM (active). Besides, the values for the IC50 in experiment [12] and in [14] were 31000 nM (active) and 51400 nM (inactive), respectively. Also, in [13], the AC50 (as a rule, the concentration giving half of the maximal activity seen) was 9800 nM (active).

On to `CCCCN(CCCC)CCNC(=O)c1cn(CC)c2ccc(S(=O)(=O)N3CCc4ccccc4C3)cc2c1=O`, for which the IC50 was 4070 nM (active) in [8] and 4280 nM (active) in experiment [9].

`O=C(c1ccc(CNc2c(N3CCCC3)c(=O)c2=O)cc1)N1CCC(c2ccccc2)CC1`: in experiment [15], the CC50 (commonly the concentration giving 50% cytotoxicity) was > 100000 nM (inconclusive).

On to `NC(=O)CCN1CCN(C2Cc3cc(Cl)ccc3Sc3cc(F)ccc32)CC1` (stereo not given), for which the Ki in [16] and in experiment [17] was 1580 nM (active) throughout.
